Experimental data published in patent publication US20240099967A1, “INHALABLE COMPOSITION OF CLOFAZIMINE AND METHODS OF USE THEREOF” (priority 2017, published 2024).

Tests used:
[1] = Geometric particle size distribution by HELOS laser diffraction with RODOS dispersion; format: physicochemical; conditions: averaged n = 3
[2] = tested on: Mycobacterium leprae, Mycobacterium avium complex (MAC), and M. tuberculosis; conditions: against mycobacterium such as M. leprae; cited from earlier work
[3] = Sabnis et al., 2015; cited from earlier work
[4] = tested on: J774.A1 macrophages; assay: Flow cytometric quantification of clofazimine uptake and biotransformation to liquid crystals; format: cell-based, murine
[5] = tested on: J774.A1 cells

SMILES	Span [1]	X10 ([1]; first column)	X10 ([1]; second column)	X10 ([1]; third column)	minimum inhibitory concentration (MIC) [2]	clofazimine solution in methanol that can be formed [3]	cells fluorescent at 660 nm emission (biotransformation to liquid crystals) ([4]; J774.A1, 24 hours exposure)	cells containing drug, fluorescence at 610 nm emission (crystalline clofazimine) ([4]; J774.A1, 24 hours exposure, 10,000 cells)	cell proliferation/viability compared to control [5]
CC(C)N=c1cc2n(-c3ccc(Cl)cc3)c3ccccc3nc-2cc1Nc1ccc(Cl)cc1 [clofazimine, N,5-bis(4-chlorophenyl)-3-(1-methylethylimino)-5H-phenazin-2-amine]	2.62	1.55 μm	7.90 μm	21.96 μm	0.125 to 2 µg/mL	0.1%	–	–	–
CC(C)/N=c1\cc2n(-c3ccc(Cl)cc3)c3ccccc3nc-2cc1Nc1ccc(Cl)cc1 [solubilized clofazimine]	–	–	–	–	–	–	0.21%	2.48%	significant decrease
